Experiments:
human EAAT3 = biological target: T1, human EAAT3 (Homo sapiens, UniProt P43005); test: [14C]glutamate uptake inhibition in human EAAT3 constitutively expressed in MDCK cells; assay type: cell-based; conditions: 1 μM L-[14C]glutamate, 12 minutes incubation
T1 construct: expressed in transfected cells; host or cells: MDCK (Madin-Darby Canine Kidney) cells
T1 sequence (P43005 1-524): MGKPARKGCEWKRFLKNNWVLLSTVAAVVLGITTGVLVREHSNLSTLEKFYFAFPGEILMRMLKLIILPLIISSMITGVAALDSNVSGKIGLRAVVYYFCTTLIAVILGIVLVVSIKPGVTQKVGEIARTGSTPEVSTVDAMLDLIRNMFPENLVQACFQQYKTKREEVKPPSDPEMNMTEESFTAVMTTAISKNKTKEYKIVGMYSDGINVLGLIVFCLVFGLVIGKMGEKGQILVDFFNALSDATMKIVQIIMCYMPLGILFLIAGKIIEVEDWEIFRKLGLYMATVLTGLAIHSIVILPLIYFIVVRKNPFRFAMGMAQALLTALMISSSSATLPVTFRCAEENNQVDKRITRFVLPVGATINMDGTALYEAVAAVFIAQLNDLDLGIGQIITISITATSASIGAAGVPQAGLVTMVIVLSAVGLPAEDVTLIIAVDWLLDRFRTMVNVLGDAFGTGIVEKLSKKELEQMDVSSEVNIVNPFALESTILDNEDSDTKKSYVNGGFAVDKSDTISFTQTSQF
Method: (§1) According to the known method (Shimamoto, K. et al., Mol. Pharmacol. 53, 195-201, 1998; Bioorg. Med. Chem. Lett. 10, 2407-2410, 2000), the inhibitory effect against [^14C]glutamate uptake was measured in human EAAT2 or EAAT3 constitutively expressed in MDCK (Madin-Darby Canine Kidney) cells. Glutamate uptake activity was determined as follows: 1 μM L-[^14C]glutamate and a sample at a given concentration were added and incubated for 12 minutes, followed by solubilizing the cells to measure incorporated radioactivity with a liquid scintillator. The amount of uptake was expressed as a percentage, assuming that uptake in the absence of a test compound (buffer alone) was set to 100% and uptake in a sodium-free solution was set to 0%.

human EAAT2 = biological target: T2, human EAAT2 (Homo sapiens, UniProt P43004); test: [14C]glutamate uptake inhibition in human EAAT2 constitutively expressed in MDCK cells; assay type: cell-based; conditions: 1 μM L-[14C]glutamate, 12 minutes incubation
T2 construct: expressed in transfected cells; host or cells: MDCK (Madin-Darby Canine Kidney) cells
T2 sequence (P43004 whole entry): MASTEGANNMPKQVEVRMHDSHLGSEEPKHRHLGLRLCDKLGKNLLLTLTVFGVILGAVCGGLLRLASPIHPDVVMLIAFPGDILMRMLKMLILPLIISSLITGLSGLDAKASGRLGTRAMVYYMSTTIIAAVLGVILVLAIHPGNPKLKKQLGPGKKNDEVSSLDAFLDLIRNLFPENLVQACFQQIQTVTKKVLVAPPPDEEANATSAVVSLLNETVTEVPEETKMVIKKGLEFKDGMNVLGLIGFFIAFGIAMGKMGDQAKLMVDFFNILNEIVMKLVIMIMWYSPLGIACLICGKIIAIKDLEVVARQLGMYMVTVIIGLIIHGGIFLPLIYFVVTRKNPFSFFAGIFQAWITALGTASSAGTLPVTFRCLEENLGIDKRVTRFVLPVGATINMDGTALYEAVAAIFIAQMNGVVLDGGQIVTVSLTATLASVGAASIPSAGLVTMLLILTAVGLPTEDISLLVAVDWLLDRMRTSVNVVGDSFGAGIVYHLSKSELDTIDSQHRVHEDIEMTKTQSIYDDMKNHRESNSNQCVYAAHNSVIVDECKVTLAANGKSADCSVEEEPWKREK
Method: as §1

glutamate transporters = conditions: Shimamoto et al., Mol. Pharmacol. 65, 2004; cited from earlier work

| IC50 (human EAAT3) | IC50 (human EAAT2) | Compound | IC50 value for uptake inhibitory activity (glutamate transporters) |
| --- | --- | --- | --- |
| 1300 nM | 1300 nM | N[C@H](C(=O)O)[C@H](OCc1ccccc1)C(=O)O [L-TBOA, L-threo-β-benzyloxyaspartic acid, reference compound] | – |
| – | – | N[C@H](C(=O)O)[C@H](OCc1cccc(NC(=O)c2ccc(C(F)(F)F)cc2)c1)C(=O)O [TFB-TBOA] | in the order of nM |
| 0.46 nM | 1.3 nM | N[C@H](C(=O)O)[C@H](OCc1cc(NC(=O)c2ccc(C(F)(F)F)cc2)cc(NC(=O)c2ccc(C(F)(F)F)cc2)c1)C(=O)O [Compound 11, (2S,3S)-3-{3,5-bis[4-(trifluoromethyl)benzamido]benzyloxy}aspartic acid] | – |
| 112 nM | 4.7 nM | CCC(=O)Nc1cc(CO[C@H](C(=O)O)[C@H](N)C(=O)O)cc(NC(=O)c2ccc(C(F)(F)F)cc2)c1 [Compound 14, (2S,3S)-3-(3-propionylamido-5-[4-(trifluoromethyl)benzamido]benzyloxy)aspartic acid] | – |
| 805 nM | 23 nM | NCCOCCOCCOCCOCC(=O)NCCCCCC(=O)NCCCCCC(=O)Nc1cc(CO[C@H](C(=O)O)[C@H](N)C(=O)O)cc(NC(=O)c2ccc(C(F)(F)F)cc2)c1 [Compound 10, (2S,3S)-3-(3-(6-(6-(2-(2-(2-(2-(2-aminoethoxy)ethoxy)ethoxy)ethoxy)acetamido)hexanamido)hexanamido)-5-(4-(trifluoromethyl)benzamido)benzyloxy)aspartic acid] | – |
